Experimental data as given in patent US20080009418A1, “Selective Inhibitors” (Alchemia LTD., priority 2004, published 2008).

Experiments:
Details in all cases: compound at 10 μM
Mouse urotensin (mUR2) = target: T1, Mouse urotensin (mUR2) (Mus musculus, UniProt Q8VIH9); assay: Radioligand binding, mouse urotensin mUR2 membranes, FlashPlate, [125I]-Urotensin II
T1 construct: purchased Perkin Elmer Biosignal
T1 sequence (Q8VIH9 1-385): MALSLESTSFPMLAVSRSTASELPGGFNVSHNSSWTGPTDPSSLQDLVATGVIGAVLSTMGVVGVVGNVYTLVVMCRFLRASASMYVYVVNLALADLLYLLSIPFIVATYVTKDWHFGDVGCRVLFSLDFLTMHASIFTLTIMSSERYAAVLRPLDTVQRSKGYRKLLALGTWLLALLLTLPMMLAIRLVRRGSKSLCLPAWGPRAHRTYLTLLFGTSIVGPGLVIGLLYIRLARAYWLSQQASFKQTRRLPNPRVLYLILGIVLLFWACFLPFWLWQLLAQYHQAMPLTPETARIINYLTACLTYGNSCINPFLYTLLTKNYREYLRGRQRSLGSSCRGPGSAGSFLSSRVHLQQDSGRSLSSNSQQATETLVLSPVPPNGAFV
How it was run: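 Cloned mouse urotensin (mUR2) receptor membranes from Perkin Elmer Biosignal were immobilized in FlashPlate microplates using a proprietary coating. Each well got 19.5 μl buffer, then 0.5 μl of DMSO, reference ligand, or compound. Adding 5 μl of [125I]-Urotensin II, diluted to 5× final concentration in binding buffer, started binding. Plates were sealed with TopSeal-A and incubated 1 hour at room temperature in the dark. Wells were counted for 30 seconds each on a TopCount after a 60-second delay, and percentage inhibition was calculated.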

[1] = target: T2, Human melanin-concentrating hormone (MCH1) (Homo sapiens, UniProt Q99705); assay: Radioligand binding, human melanin-concentrating hormone MCH1 membranes, FlashPlate, [125I]-S36057
T2 construct: purchased Perkin Elmer Biosignal
T2 sequence (Q99705 whole entry): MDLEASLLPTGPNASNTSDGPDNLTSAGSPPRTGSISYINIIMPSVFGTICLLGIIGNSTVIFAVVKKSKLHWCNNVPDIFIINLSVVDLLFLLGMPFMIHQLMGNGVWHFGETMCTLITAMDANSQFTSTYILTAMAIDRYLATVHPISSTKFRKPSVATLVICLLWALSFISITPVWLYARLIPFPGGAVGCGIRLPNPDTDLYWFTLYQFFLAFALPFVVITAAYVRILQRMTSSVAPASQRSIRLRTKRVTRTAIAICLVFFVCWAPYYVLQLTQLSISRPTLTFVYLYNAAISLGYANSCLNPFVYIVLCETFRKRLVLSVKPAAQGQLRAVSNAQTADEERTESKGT
How it was run: (§1)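 Cloned human receptor membranes were coated onto FlashPlate wells and incubated with radioligand and compound (added from a 0.5 mM DMSO daughter plate) for 1 hour at room temperature in the dark. Scintillation counting gave percent inhibition, with DMSO defining total and reference ligand defining non-specific binding.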

[2] = target: T3, Human neuropeptide Y (NPY-Y1) (Homo sapiens, UniProt P25929); assay: Radioligand binding, human neuropeptide Y NPY-Y1 membranes, FlashPlate, [125I]-PYY
T3 construct: purchased Perkin Elmer Biosignal
T3 sequence (P25929 1-384): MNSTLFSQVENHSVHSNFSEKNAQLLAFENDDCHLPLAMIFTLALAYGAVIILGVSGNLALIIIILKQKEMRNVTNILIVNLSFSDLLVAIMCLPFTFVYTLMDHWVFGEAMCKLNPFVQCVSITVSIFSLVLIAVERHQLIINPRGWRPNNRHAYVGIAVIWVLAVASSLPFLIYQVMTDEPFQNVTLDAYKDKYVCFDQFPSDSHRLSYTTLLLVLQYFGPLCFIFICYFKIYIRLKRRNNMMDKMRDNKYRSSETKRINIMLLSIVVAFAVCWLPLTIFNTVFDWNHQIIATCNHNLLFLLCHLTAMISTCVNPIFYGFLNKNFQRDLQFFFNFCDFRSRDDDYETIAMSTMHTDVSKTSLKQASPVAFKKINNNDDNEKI
How it was run: as §1

Human melanocortin (MC5) = target: T4, Human melanocortin (MC5) (Homo sapiens, UniProt P33032); assay: Radioligand binding, human melanocortin MC5 membranes, FlashPlate, [125I]-NDP-αMSH
T4 construct: purchased Perkin Elmer Biosignal
T4 sequence (P33032 whole entry): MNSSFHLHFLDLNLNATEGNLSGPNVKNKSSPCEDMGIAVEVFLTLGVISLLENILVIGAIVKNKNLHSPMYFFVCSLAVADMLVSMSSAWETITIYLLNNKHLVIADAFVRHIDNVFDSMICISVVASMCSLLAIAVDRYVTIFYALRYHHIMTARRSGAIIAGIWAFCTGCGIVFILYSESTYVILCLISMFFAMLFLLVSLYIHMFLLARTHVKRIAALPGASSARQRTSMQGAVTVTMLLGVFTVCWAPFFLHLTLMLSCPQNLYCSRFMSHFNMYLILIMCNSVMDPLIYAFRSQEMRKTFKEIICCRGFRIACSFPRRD
How it was run: as §1

Human opioid (ORL1) = target: T5, Human opioid (ORL1) (Homo sapiens, UniProt P41146); assay: Radioligand binding, human opioid ORL1 membranes, FlashPlate, [125I]-Nociceptin
T5 construct: purchased Perkin Elmer Biosignal
T5 sequence (P41146 whole entry): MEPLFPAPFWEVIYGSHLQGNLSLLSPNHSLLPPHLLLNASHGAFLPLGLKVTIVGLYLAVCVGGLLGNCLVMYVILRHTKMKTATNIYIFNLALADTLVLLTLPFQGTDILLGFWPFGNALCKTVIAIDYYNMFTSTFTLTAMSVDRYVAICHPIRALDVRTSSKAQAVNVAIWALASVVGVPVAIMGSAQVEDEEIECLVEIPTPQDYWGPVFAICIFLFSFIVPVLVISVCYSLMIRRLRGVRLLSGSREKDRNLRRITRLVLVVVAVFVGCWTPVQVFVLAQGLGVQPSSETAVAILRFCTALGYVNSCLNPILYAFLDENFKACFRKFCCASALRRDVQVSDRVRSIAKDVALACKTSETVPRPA
How it was run: as §1

Human Melanocortin (MC4) = target: T6, Human Melanocortin (MC4) (Homo sapiens, UniProt P32245); assay: Radioligand binding, human melanocortin MC4 membranes, FlashPlate, [125I]-NDP-αMSH
T6 construct: purchased Perkin Elmer Biosignal
T6 sequence (P32245 whole entry): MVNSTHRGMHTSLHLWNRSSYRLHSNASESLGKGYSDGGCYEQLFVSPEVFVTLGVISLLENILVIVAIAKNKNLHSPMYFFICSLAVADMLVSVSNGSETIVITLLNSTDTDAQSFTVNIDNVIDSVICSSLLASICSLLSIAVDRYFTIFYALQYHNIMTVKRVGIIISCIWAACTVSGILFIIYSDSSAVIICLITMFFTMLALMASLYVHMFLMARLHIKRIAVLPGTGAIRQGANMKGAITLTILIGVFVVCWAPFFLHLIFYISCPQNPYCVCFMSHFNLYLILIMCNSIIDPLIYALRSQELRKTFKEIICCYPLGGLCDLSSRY
How it was run: as §1

Human δ-opioid (DOP) = target: T7, Human δ-opioid (DOP) (Homo sapiens, UniProt P41143); assay: Radioligand binding, human δ-opioid (DOP) membranes, FlashPlate, [3H]-Bremazocine
T7 construct: purchased Perkin Elmer Biosignal
T7 sequence (P41143 whole entry): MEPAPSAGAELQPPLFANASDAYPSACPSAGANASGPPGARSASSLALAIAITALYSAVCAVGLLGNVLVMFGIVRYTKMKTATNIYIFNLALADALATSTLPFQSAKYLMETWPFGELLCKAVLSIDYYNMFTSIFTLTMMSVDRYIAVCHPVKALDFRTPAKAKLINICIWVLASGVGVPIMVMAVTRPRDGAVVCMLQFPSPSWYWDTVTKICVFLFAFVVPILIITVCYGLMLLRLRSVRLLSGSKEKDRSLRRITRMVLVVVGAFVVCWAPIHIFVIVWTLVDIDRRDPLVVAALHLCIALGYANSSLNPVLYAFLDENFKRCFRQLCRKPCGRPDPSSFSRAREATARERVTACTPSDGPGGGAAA
How it was run: as §1

Human neurokinin (NK1) = target: T8, Human neurokinin (NK1) (Homo sapiens, UniProt P25103); assay: Radioligand binding, human neurokinin NK1 membranes, filtration, [125I]-Substance P
T8 construct: purchased Perkin Elmer Biosignal
T8 sequence (P25103 whole entry): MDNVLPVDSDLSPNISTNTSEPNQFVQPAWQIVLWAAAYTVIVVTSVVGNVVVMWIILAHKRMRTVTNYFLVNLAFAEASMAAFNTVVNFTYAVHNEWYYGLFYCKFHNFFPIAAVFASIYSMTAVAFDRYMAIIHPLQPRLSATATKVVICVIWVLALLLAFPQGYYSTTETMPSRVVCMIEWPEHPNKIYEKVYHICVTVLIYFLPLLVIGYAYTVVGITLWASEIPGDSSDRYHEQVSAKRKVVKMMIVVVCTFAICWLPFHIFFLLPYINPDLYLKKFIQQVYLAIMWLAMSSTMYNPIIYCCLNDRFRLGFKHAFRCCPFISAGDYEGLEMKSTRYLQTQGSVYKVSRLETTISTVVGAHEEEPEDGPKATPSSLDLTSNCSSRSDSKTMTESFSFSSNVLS
How it was run: (§2)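 Membranes from cloned human receptors were incubated with compound and radioligand for 1 hour at room temperature. Bound ligand was collected on 0.3% PEI-soaked filters, washed with cold 50 mM Tris-HCl pH 7.4, and counted by scintillation. Percent inhibition was computed against DMSO totals and reference-ligand nonspecific wells.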

Human κ-Opioid (KOP) = target: T9, Human κ-Opioid (KOP) (Homo sapiens, UniProt P41145); assay: Radioligand binding, human κ-opioid (KOP) membranes, filtration, [3H]-Diprenorphine
T9 construct: purchased Perkin Elmer Biosignal
T9 sequence (P41145 whole entry): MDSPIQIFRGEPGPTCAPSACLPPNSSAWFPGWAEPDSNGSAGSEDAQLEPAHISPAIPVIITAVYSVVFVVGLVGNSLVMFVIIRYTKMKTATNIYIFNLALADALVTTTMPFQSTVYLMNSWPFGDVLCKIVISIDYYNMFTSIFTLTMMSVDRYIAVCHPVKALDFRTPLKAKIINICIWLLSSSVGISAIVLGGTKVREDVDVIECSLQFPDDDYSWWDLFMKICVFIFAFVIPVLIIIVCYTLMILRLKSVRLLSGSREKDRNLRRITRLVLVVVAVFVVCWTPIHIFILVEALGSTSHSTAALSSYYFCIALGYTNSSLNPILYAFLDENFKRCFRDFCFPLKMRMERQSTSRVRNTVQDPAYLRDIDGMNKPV
How it was run: as §2

Human μ-opioid (MOP) = target: T10, Human μ-opioid (MOP) (Homo sapiens, UniProt P35372); assay: Radioligand binding, human μ-opioid (MOP) membranes, FlashPlate, [3H]-Naloxone
T10 construct: purchased Perkin Elmer Biosignal
T10 sequence (P35372 whole entry): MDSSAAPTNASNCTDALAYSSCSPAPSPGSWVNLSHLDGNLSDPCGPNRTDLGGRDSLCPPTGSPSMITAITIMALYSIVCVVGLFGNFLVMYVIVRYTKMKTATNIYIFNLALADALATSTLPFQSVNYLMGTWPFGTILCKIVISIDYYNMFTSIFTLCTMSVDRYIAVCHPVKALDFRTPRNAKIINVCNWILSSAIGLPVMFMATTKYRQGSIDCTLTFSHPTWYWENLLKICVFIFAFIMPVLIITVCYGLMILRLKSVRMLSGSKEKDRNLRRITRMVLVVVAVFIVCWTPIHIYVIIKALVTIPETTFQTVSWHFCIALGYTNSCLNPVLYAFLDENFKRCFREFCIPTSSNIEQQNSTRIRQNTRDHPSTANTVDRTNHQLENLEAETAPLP
How it was run: as §1

Human Melanocortin (MC3) = target: T11, Human Melanocortin (MC3) (Homo sapiens, UniProt P41968); assay: Radioligand binding, human melanocortin MC3 membranes, FlashPlate, [125I]-NDP-αMSH
T11 construct: purchased Perkin Elmer Biosignal
T11 sequence (P41968 whole entry): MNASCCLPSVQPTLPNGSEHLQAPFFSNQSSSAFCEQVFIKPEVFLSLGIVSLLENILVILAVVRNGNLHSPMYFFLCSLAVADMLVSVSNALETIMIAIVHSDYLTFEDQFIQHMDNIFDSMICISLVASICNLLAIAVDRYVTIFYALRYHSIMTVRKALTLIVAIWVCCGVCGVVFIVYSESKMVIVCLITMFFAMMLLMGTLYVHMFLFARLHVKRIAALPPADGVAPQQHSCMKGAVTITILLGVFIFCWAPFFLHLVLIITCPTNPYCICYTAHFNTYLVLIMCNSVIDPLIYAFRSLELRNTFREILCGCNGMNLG
How it was run: as §1

SMILES: CO[C@H]1[C@H](O)[C@@H](COCc2cccc(O)c2)OC(OCc2ccc(Cl)cc2)[C@@H]1NC(=O)CCCN (stereo partly drawn) [compound 156]
- A11 radioligand binding, percentage inhibition (Mouse urotensin (mUR2); [125I]-Urotensin II): − (“−” indicates less than 50% inhibition at 10 μM)
- A6 radioligand binding, percentage inhibition ([1]; [125I]-S36057): − (“−” indicates less than 50% inhibition at 10 μM)
- A9 radioligand binding, percentage inhibition ([2]; [125I]-PYY): − (“−” indicates less than 50% inhibition at 10 μM)
- A5 radioligand binding, percentage inhibition (Human melanocortin (MC5); [125I]-NDP-αMSH): + (“+” indicates greater than 50% inhibition at 10 μM)
- A10 radioligand binding, percentage inhibition (Human opioid (ORL1); [125I]-Nociceptin): − (“−” indicates less than 50% inhibition at 10 μM)
- A4 radioligand binding, percentage inhibition (Human Melanocortin (MC4); [125I]-NDP-αMSH): − (“−” indicates less than 50% inhibition at 10 μM)
- A1 radioligand binding, percentage inhibition (Human δ-opioid (DOP); [3H]-Bremazocine): − (“−” indicates less than 50% inhibition at 10 μM)
- A8 radioligand binding, percentage inhibition (Human neurokinin (NK1); [125I]-Substance P): + (“+” indicates greater than 50% inhibition at 10 μM)
- A2 radioligand binding, percentage inhibition (Human κ-Opioid (KOP); [3H]-Diprenorphine): − (“−” indicates less than 50% inhibition at 10 μM)
- A7 radioligand binding, percentage inhibition (Human μ-opioid (MOP); [3H]-Naloxone): − (“−” indicates less than 50% inhibition at 10 μM)
- A3 radioligand binding, percentage inhibition (Human Melanocortin (MC3); [125I]-NDP-αMSH): − (“−” indicates less than 50% inhibition at 10 μM)

SMILES: CSC1OC(COCc2cccc(N)c2)C(O)C(OCc2ccccc2)C1NC(=O)Cc1ccccc1 (stereo not drawn) [compound 330]
- A11: inhibition of radioligand binding, mouse urotensin (mUR2) (Mouse urotensin (mUR2); [125I]-Urotensin II): − (“−” indicates less than 50% inhibition at 10 μM)
- A6: inhibition of radioligand binding, human melanin-concentrating hormone (MCH1) ([1]; [125I]-S36057): − (“−” indicates less than 50% inhibition at 10 μM)
- A9: inhibition of radioligand binding, human neuropeptide Y (NPY-Y1) ([2]; [125I]-PYY): − (“−” indicates less than 50% inhibition at 10 μM)
- A5: inhibition of radioligand binding, human melanocortin (MC5) (Human melanocortin (MC5); [125I]-NDP-αMSH, 10 µM): − (“−” indicates less than 50% inhibition at 10 μM)
- A10: inhibition of radioligand binding, human opioid (ORL1) (Human opioid (ORL1); [125I]-Nociceptin): − (“−” indicates less than 50% inhibition at 10 μM)
- A4: inhibition of radioligand binding, human melanocortin (MC4) (Human Melanocortin (MC4); [125I]-NDP-αMSH): − (“−” indicates less than 50% inhibition at 10 μM)
- A1: inhibition of radioligand binding, human δ-opioid (DOP) (Human δ-opioid (DOP); [3H]-Bremazocine): − (“−” indicates less than 50% inhibition at 10 μM)
- A8: inhibition of radioligand binding, human neurokinin (NK1) (Human neurokinin (NK1); [125I]-Substance P): + (“+” indicates greater than 50% inhibition at 10 μM)
- A2: inhibition of radioligand binding, human κ-opioid (KOP) (Human κ-Opioid (KOP); [3H]-Diprenorphine): − (“−” indicates less than 50% inhibition at 10 μM)
- A7: inhibition of radioligand binding, human μ-opioid (MOP) (Human μ-opioid (MOP); [3H]-Naloxone): − (“−” indicates less than 50% inhibition at 10 μM)
- A3: inhibition of radioligand binding, human melanocortin (MC3) (Human Melanocortin (MC3); [125I]-NDP-αMSH): − (“−” indicates less than 50% inhibition at 10 μM)

SMILES: COC[C@H]1OC(OCc2ccc(Cl)cc2)[C@H](NC(=O)CCCNC(=N)N)[C@@H](OCc2ccccc2)[C@@H]1O (stereo partly drawn) [compound 36]
- A11 radioligand binding inhibition (Mouse urotensin (mUR2); mouse urotensin mUR2 membranes): − (“−” indicates less than 50% inhibition at 10 μM)
- A6 radioligand binding inhibition ([1]; human MCH1 membranes): − (“−” indicates less than 50% inhibition at 10 μM)
- A9 radioligand binding inhibition ([2]; human NPY-Y1 membranes): − (“−” indicates less than 50% inhibition at 10 μM)
- A5 radioligand binding inhibition (Human melanocortin (MC5); human melanocortin MC5 membranes): − (“−” indicates less than 50% inhibition at 10 μM)
- A10 radioligand binding inhibition (Human opioid (ORL1); human ORL1 membranes): − (“−” indicates less than 50% inhibition at 10 μM)
- A4 radioligand binding inhibition (Human Melanocortin (MC4); human melanocortin MC4 membranes): − (“−” indicates less than 50% inhibition at 10 μM)
- A1 radioligand binding inhibition (Human δ-opioid (DOP); human δ-opioid (DOP) membranes): − (“−” indicates less than 50% inhibition at 10 μM)
- A8 radioligand binding inhibition (Human neurokinin (NK1); human neurokinin NK1 membranes): + (“+” indicates greater than 50% inhibition at 10 μM)
- A2 radioligand binding inhibition (Human κ-Opioid (KOP); human κ-opioid (KOP) membranes): − (“−” indicates less than 50% inhibition at 10 μM)
- A7 radioligand binding inhibition (Human μ-opioid (MOP); human μ-opioid (MOP) membranes): + (“+” indicates greater than 50% inhibition at 10 μM)
- A3 radioligand binding inhibition (Human Melanocortin (MC3); human melanocortin MC3 membranes): − (“−” indicates less than 50% inhibition at 10 μM)
